The values below are quoted from earlier work in patent US20040253692A1, “Streptomyces sp. CJPV975652 capable of converting compactin to pravastatin and method for producing pravastatin using the same” (priority 2003, published 2004).

The target of one series is T1, HMG-CoA reductase (Homo sapiens, UniProt P04035).
T1 sequence (P04035 1-888): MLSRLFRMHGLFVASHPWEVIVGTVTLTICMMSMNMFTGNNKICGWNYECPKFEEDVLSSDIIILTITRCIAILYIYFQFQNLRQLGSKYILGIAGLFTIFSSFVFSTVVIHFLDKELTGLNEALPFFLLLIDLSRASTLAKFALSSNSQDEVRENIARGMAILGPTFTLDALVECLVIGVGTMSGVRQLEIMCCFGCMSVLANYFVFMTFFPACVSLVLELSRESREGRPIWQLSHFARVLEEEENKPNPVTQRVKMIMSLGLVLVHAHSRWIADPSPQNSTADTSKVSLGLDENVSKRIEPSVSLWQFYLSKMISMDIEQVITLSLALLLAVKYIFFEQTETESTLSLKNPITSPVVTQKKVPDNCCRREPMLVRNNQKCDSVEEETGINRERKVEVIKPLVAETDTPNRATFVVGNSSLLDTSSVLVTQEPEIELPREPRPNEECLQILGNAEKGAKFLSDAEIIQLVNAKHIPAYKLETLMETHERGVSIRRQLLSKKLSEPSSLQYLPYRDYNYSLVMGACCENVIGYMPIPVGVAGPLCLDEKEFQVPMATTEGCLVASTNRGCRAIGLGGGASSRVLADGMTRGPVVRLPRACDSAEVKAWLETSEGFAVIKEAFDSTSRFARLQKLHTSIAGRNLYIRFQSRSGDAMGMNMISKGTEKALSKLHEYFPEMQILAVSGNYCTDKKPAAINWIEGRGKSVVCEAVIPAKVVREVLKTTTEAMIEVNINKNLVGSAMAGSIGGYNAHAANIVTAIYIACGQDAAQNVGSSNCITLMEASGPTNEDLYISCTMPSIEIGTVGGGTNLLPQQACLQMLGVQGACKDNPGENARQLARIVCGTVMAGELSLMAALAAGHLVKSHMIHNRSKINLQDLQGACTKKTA
Conditions: compared with compactin.

The conditions of series [1]: daily dosage of 5-10 mg for 3 months.

SMILES strings stand for the structures.

For `CC[C@H](C)C(=O)O[C@H]1C[C@H](O)C=C2C=C[C@H](C)[C@H](CC[C@@H](O)C[C@@H](O)CC(=O)O)[C@H]21` [pravastatin], the “effectiveness as a HMG-CoA reductase inhibitor” value at HMG-CoA reductase is listed as “more effective than compactin”. For the same compound, in series [1], the “reduction of LDL-cholesterol level” value is recorded as 20-40% and the “reduction of total cholesterol level” value is 20-40%.
